Patent US8470839B2, “N1-acyl-5-fluoropyrimidinone derivatives” (Dow Agrosciences, LLC., priority 2009, dated 2013)
Where two headings read alike, the source gives them in different places.

Legend:
[1] = system: Mycosphaerella graminicola; Anamorph: Septoria tritici; Bayer Code SEPTTR; test: Evaluation of fungicidal activity: leaf blotch of wheat, greenhouse wheat plants inoculated with Septoria tritici; format: in vivo; conditions: Zymoseptoria tritici
Procedure: Evaluation of Fungicidal Activity: Leaf Blotch of Wheat (Mycosphaerella graminicola; Anamorph: Septoria tritici; Bayer Code […]) Wheat plants (variety Yuma) were grown from seed in a greenhouse in 50% mineral soil/50% soil-less Metro mix until the first leaf was fully emerged, with 7-10 seedlings per pot. These plants were inoculated with an aqueous spore suspension of Septoria tritici either prior to or after fungicide treatments. After inoculation the plants were kept in 100% relative humidity (one day in a dark dew chamber followed by two to three days in a lighted dew chamber) to permit spores to germinate and infect the leaf. The plants were then transferred to a greenhouse for disease to develop. The following table presents the activity of typical compounds of the present disclosure when evaluated in these experiments. The effectiveness of the test compounds in controlling disease was determined by assessing the severity of disease on treated plants, then converting the severity to percent control based on the level of disease on untreated, inoculated plants. In each case of Table II the rating scale is as follows: […]

[2] = 24 h, One-Day Protectant (1DP), 100 ppm, wheat leaf blotch, percent control vs untreated inoculated plants, read-out: SEPTTR 100 PPM 1DP (% Disease Control rating)
[3] = 72 h, Three-Day Curative (3DC), 100 ppm, wheat leaf blotch, percent control vs untreated inoculated plants, read-out: SEPTTR 100 PPM 3DC (% Disease Control rating)

| melting point | Structure (SMILES) | pest or weed control at 100 ppm [1, 2] [%] | pest or weed control at 100 ppm [1, 3] [%] | pest or weed control at 100 ppm ([1]; 24 h, read-out: SEPTTR 100 PPM 1DP (% Disease Control rating)) [%] | pest or weed control at 100 ppm ([1]; 72 h, read-out: SEPTTR 100 PPM 3DC (% Disease Control rating)) [%] |
| --- | --- | --- | --- | --- | --- |
| 126.2 to 128.3 °C | COc1ccc(C(=O)n2cc(F)c(/N=C/N(C)C)nc2=O)cc1 [Compound 8] | 76 to 100 | 76 to 100 | – | – |
| 128.8 to 130.5 °C | Cc1ccc(C(=O)n2cc(F)c(/N=C/N(C)C)nc2=O)cc1 [Compound 9] | 76 to 100 | 76 to 100 | – | – |
| 213.2 to 215.3 °C | Nc1nc(=O)n(C(=O)c2ccccc2)cc1F [Compound 14] | 76 to 100 | 76 to 100 | – | – |
| 257.9 to 259.6 °C | COc1ccc(C(=O)n2cc(F)c(N)nc2=O)cc1 [Compound 15] | 76 to 100 | 76 to 100 | – | – |
| 228.3 to 229.7 °C | Nc1nc(=O)n(C(=O)c2ccccc2F)cc1F [Compound 16] | 76 to 100 | 76 to 100 | – | – |
| 257 to 259.5 °C | Cc1ccc(C(=O)n2cc(F)c(N)nc2=O)cc1 [Compound 17] | 76 to 100 | 76 to 100 | – | – |
| 170 to 172 °C | COc1ccc(C(=O)n2cc(F)c(N)nc2=O)cc1OC [Compound 18] | 76 to 100 | 76 to 100 | – | – |
| 223.1 to 225.2 °C | Nc1nc(=O)n(C(=O)c2ccsc2)cc1F [Compound 19] | 76 to 100 | 76 to 100 | – | – |
| 150 to 152 °C | Nc1nc(=O)n(C(=O)c2ccc(F)c(F)c2)cc1F [Compound 20] | 76 to 100 | 76 to 100 | – | – |
| 146.9 to 148.2 °C | CC(=O)Nc1nc(=O)n(C(=O)c2ccc(C)cc2)cc1F [Compound 21, N-(5-fluoro-1-(4-methylbenzoyl)-2-oxo-1,2-dihydropyrimidin-4-yl)acetamide] | – | – | – | – |

Further lines, the compound ahead of its results:

| Structure (SMILES) | melting point | pest or weed control at 100 ppm [1, 2] [%] | pest or weed control at 100 ppm [1, 3] [%] | pest or weed control at 100 ppm ([1]; 24 h, read-out: SEPTTR 100 PPM 1DP (% Disease Control rating)) [%] | pest or weed control at 100 ppm ([1]; 72 h, read-out: SEPTTR 100 PPM 3DC (% Disease Control rating)) [%] |
| --- | --- | --- | --- | --- | --- |
| CC(=O)n1cc(F)c(/N=C/N(C)C)nc1=O [Compound 1, N′-(1-acetyl-5-fluoro-2-oxo-1,2-dihydropyrimidin-4-yl)-N,N-dimethylformamidine] | 125 to 130 °C (dec.) | 76 to 100 | 76 to 100 | – | – |
| Cc1cccc(C)c1C(=O)n1cc(F)c(/N=C/N(C)C)nc1=O [Compound 2, N′-[1-(2,6-dimethylbenzoyl)-5-fluoro-2-oxo-1,2-dihydro-pyrimidin-4-yl]-N,N-dimethylformamidine] | 120 to 150 °C | 76 to 100 | 76 to 100 | – | – |
| CN(C)/C=N/c1nc(=O)n(C(=O)c2c(Cl)cccc2Cl)cc1F [Compound 3, N′-[1-(2,6-dichlorobenzoyl)-5-fluoro-2-oxo-1,2-dihydro-pyrimidin-4-yl]-N,N-dimethylformamidine] | 185 to 187 °C | – | – | 51 to 75 | 76 to 100 |
| CN(C)/C=N/c1nc(=O)n(C(=O)c2ccc(Cl)cc2Cl)cc1F [Compound 4] | – | 76 to 100 | 76 to 100 | – | – |
| Cc1ccc(C(=O)n2cc(F)c(/N=C/N(C)C)nc2=O)c(C)c1 [Compound 5] | – | 76 to 100 | 76 to 100 | – | – |
| CC(C)=CC(=O)n1cc(F)c(/N=C/N(C)C)nc1=O [Compound 6] | 128 to 130 °C | 76 to 100 | 76 to 100 | – | – |
| CN(C)/C=N/c1nc(=O)n(C(=O)c2ccccc2)cc1F [Compound 7] | 137.3 to 139 °C | 76 to 100 | 76 to 100 | – | – |
| CN(C)/C=N/c1nc(=O)n(C(=O)c2cccs2)cc1F [Compound 10] | 154.8 to 156.5 °C | 76 to 100 | 76 to 100 | – | – |
| CN(C)/C=N/c1nc(=O)n(C(=O)c2ccc(F)c(F)c2)cc1F [Compound 11] | 130 to 132 °C | 76 to 100 | 76 to 100 | – | – |
| CN(C)/C=N/c1nc(=O)n(C(=O)c2cccc(Cl)c2)cc1F [Compound 12] | 95.3 to 97.7 °C | – | – | – | – |
| Nc1nc(=O)n(C(=O)c2cc(F)cc(F)c2)cc1F [Compound 13, 4-amino-1-(3,5-difluorobenzoyl)-5-fluoro-1H-pyrimidin-2-one] | – | 76 to 100 | 76 to 100 | – | – |
| CC(=O)Nc1nc(=O)n(C(=O)c2ccccc2)cc1F [Compound 22] | 122.8 to 123.6 °C | – | – | – | – |
| CC(=O)Nc1nc(=O)n(C(=O)c2cccc(Cl)c2)cc1F [Compound 23] | 129.5 to 131 °C | – | – | – | – |
